Biological target: T1, serotonin 5-HT6 receptor subtype (Homo sapiens, UniProt P50406)
T1 construct: host or cells: CHO-Dukx-A2 cells, clone 50-7
Assay: 5-HT6 binding affinity ([3H]-LSD SPA binding)
Conditions: read-out: 5-HT6 binding Ki

T1 sequence (P50406 whole entry): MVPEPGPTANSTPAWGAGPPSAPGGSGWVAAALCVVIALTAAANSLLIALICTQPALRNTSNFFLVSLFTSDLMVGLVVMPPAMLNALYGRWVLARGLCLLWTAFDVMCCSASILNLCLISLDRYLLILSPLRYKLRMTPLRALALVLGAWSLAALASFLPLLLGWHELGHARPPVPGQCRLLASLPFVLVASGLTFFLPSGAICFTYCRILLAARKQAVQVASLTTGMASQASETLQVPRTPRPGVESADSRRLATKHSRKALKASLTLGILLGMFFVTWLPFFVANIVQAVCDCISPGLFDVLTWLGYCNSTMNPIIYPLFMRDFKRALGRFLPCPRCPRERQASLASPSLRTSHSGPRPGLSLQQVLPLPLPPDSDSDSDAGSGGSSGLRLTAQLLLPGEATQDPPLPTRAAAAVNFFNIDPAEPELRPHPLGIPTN

Structure (SMILES) | Ki
O=S(=O)(c1cccc2ccccc12)n1cnc2c(N3C[C@@H]4C[C@H]3CN4)cccc21 [Example 105, 4-[(1S,4S)-2,5-diazabicyclo[2.2.1]hept-2-yl]-1-(naphthalen-1-ylsulfonyl)-1H-benzimidazole] | 7.55 nM
O=S(=O)(c1ccccc1Cl)n1cnc2c(N3C[C@@H]4C[C@H]3CN4)cccc21 [Example 106, 1-[(2-chlorophenyl)sulfonyl]-4-[(1S,4S)-2,5-diazabicyclo[2.2.1]hept-2-yl]-1H-benzimidazole] | 5.3 nM
O=S(=O)(c1cccc(F)c1)n1cnc2c(N3C[C@@H]4C[C@H]3CN4)cccc21 [Example 107, 4-[(1S,4S)-2,5-diazabicyclo[2.2.1]hept-2-yl]-1-[(3-fluorophenyl)sulfonyl]-1H-benzimidazole] | 22.1 nM
Cc1nc2c(N3C[C@@H]4C[C@H]3CN4)cccc2n1S(=O)(=O)c1ccccc1 [Example 109, 4-[(1S,4S)-2,5-diazabicyclo[2.2.1]hept-2-yl]-2-methyl-1-(phenylsulfonyl)-1H-benzimidazole] | 30.5 nM
Cc1nc2c(N3C[C@@H]4C[C@H]3CN4)cccc2n1S(=O)(=O)c1cccc2ccccc12 [Example 110, 4-[(1S,4S)-2,5-diazabicyclo[2.2.1]hept-2-yl]-2-methyl-1-(naphthalen-1-ylsulfonyl)-1H-benzimidazole] | 9.92 nM
Cc1nc2c(N3C[C@@H]4C[C@H]3CN4)cccc2n1S(=O)(=O)c1ccccc1Cl [Example 111, 1-[(2-chlorophenyl)sulfonyl]-4-[(1S,4S)-2,5-diazabicyclo[2.2.1]hept-2-yl]-2-methyl-1H-benzimidazole] | 21 nM
Cc1nc2c(N3C[C@@H]4C[C@H]3CN4)cccc2n1S(=O)(=O)c1cccc(F)c1 [Example 112, 4-[(1S,4S)-2,5-diazabicyclo[2.2.1]hept-2-yl]-1-[(3-fluorophenyl)sulfonyl]-2-methyl-1H-benzimidazole] | 39.9 nM
Cc1c(Cl)cccc1S(=O)(=O)n1c(C)nc2c(N3C[C@@H]4C[C@H]3CN4)cccc21 [Example 113, 1-[(3-chloro-2-methylphenyl)sulfonyl]-4-[(1S,4S)-2,5-diazabicyclo[2.2.1]hept-2-yl]-2-methyl-1H-benzimidazole] | 14.1 nM
CC(C)C1CN(c2cccc3c2ncn3S(=O)(=O)c2ccccc2)CCN1 (stereo not drawn) [Example 120, 4-(3-isopropylpiperazin-1-yl)-1-(phenylsulfonyl)-1H-benzimidazole] | 6.11 nM
CC(C)CC1CN(c2cccc3c2ncn3S(=O)(=O)c2ccccc2)CCN1 (stereo not drawn) [Example 123, 4-(3-isobutylpiperazin-1-yl)-1-(phenylsulfonyl)-1H-benzimidazole] | 34.3 nM
CC(C)CC1CN(c2cccc3c2ncn3S(=O)(=O)c2cccc3ccccc23)CCN1 (stereo not drawn) [Example 124, 4-(3-isobutylpiperazin-1-yl)-1-(1-naphthylsulfonyl)-1H-benzimidazole] | 8.32 nM
Cc1nc2c(N3CCN[C@H](C)C3)cccc2n1S(=O)(=O)c1cccc2c(Cl)cccc12 [Example 127, 1-[(5-chloro-1-naphthyl)sulfonyl]-2-methyl-4-[(3R)-3-methylpiperazin-1-yl]-1H-benzimidazole] | 8.38 nM

These reach a lower Ki. Values come first.

Ki | Structure (SMILES)
2.86 nM | Cc1c(Cl)cccc1S(=O)(=O)n1cnc2c(N3C[C@@H]4C[C@H]3CN4)cccc21 [Example 108, 1-[(3-chloro-2-methylphenyl)sulfonyl]-4-[(1S,4S)-2,5-diazabicyclo[2.2.1]hept-2-yl]-1H-benzimidazole]
1.38 nM | CCC1CN(c2cccc3c2ncn3S(=O)(=O)c2cccc3ccccc23)CCN1 (stereo not drawn) [Example 118, 4-(3-ethylpiperazin-1-yl)-1-(1-naphthylsulfonyl)-1H-benzimidazole]
0.484 nM | CCC1CN(c2cccc3c2ncn3S(=O)(=O)c2ccccc2)CCN1 (stereo not drawn) [Example 119, 4-(3-ethylpiperazin-1-yl)-1-(phenylsulfonyl)-1H-benzimidazole]
0.952 nM | CC(C)C1CN(c2cccc3c2ncn3S(=O)(=O)c2cccc3ccccc23)CCN1 (stereo not drawn) [Example 121, 4-(3-isopropylpiperazin-1-yl)-1-(1-naphthylsulfonyl)-1H-benzimidazole]
1.08 nM | CC(C)C1CN(c2cccc3c2ncn3S(=O)(=O)c2ccccc2Cl)CCN1 (stereo not drawn) [Example 122, 1-[(2-chlorophenyl)sulfonyl]-4-(3-isopropylpiperazin-1-yl)-1H-benzimidazole]
4.98 nM | CC(C)CC1CN(c2cccc3c2ncn3S(=O)(=O)c2ccccc2Cl)CCN1 (stereo not drawn) [Example 125, 1-[(2-chlorophenyl)sulfonyl]-4-(3-isobutylpiperazin-1-yl)-1H-benzimidazole]
1.05 nM | Cc1nc2c(N3CCN[C@@H](C)C3)cccc2n1S(=O)(=O)c1cccc2c(Cl)cccc12 [Example 126, 1-[(5-chloro-1-naphthyl)sulfonyl]-2-methyl-4-[(3S)-3-methylpiperazin-1-yl]-1H-benzimidazole]
0.931 nM | CC1CN(c2cccc3c2ncn3S(=O)(=O)c2ccccc2)CCN1 (stereo not drawn) [Example 128, 4-(3-methylpiperazin-1-yl)-1-(phenylsulfonyl)-1H-benzimidazole]
0.051 nM | CC1CN(c2cccc3c2ncn3S(=O)(=O)c2cccc3ccccc23)CCN1 (stereo not drawn) [Example 129, 4-(3-methylpiperazin-1-yl)-1-(1-naphthylsulfonyl)-1H-benzimidazole]

Reference: patent publication US8063053B2, “1-(arylsulfonyl)-4-(piperazin-1-yl)-1H-benzimidazoles as 5-hydroxytryptamine-6 ligands” (Wyeth LLC, priority 2008, dated 2011)
